Laboratory results reported in patent US9578878B2, “Antimicrobial efficacy of an oregano oil and caprylic acid blend” (Kemin Industries, Inc., priority 2014, dated 2017).

Key:
Assay in all cases: Preservative efficacy testing in cream, Example 2 (Study 1 and 2)
Format in all cases: cell-based
[1] = tested on: Aspergillus brasiliensis (ATCC #16404)
Method: (§1) Oregano essential oil containing 67.8% carvacrol (lot number 628034, thymol was not detectable) was received from Kemin SCI. Caprylic acid was obtained from Fisher Scientific (catalog number AC12939). To make MicroCurb OC, a blend with 10% oregano essential oil and 90% caprylic acid (w/w) was prepared for initial testing. The solution was mixed thoroughly for 10 seconds by a vortex mixer until a clear, homogenous mixture was obtained, resulting in the product MicroCurb OC.
(§2) Creams were prepared aseptically by spraying 70% isopropyl alcohol on all surfaces and glassware. Preservative studies were completed at different times for caprylic acid alone (Study 1) and MicroCurb OC (Study 2). Tables 5 and 6 list the various ingredients and their percentages used in Study 1 and 2, respectively.
(§3) De-ionized water was added to a pre-weighed 250 mL beaker and mixed at 800 rpm using an overhead mixer (Eurostar power-b IKA-WERKE, Wilmington, N.C.) with a 3 blade impeller. Carbomer 940 was slowly added to the center of the mixing water. The mixture was hydrated for 30 minutes while covered with aluminum foil. Glycerin and Lysofix were slowly added to the solution. After solution appeared homogenous, safflower oil, olive oil, and coco caprylate were slowly added to the mixture at 1000 rpm. The solution was mixed for 30 minutes while covered with aluminum foil. Next the pH was measured (around 3.2) and adjusted to 5.5 with a 33.3% sodium hydroxide solution. The mixing speed was increased to 1400 rpm. From time to time, it was necessary to scrape the sides of the beaker with a spatula to ensure that the cream became homogenized. After 5 minutes, the cream was weighed and water was replenished for the mass lost during the processing.
(§4) Microorganisms Escherichia coli (ATCC #8739), Staphylococcus aureus (ATCC #6538), Pseudomonas aeruginosa (ATCC #9027), and Candida albicans (ATCC #10231) were obtained from −80° C. internal stock cultures. Aspergillus brasiliensis (ATCC #16404) was obtained from an internal stock solution stored at 4° C. E. coli, S. aureus, and P. aeruginosa were grown in TSB and incubated at 37° C. for 24 h. A. brasiliensis was plated on SDA and incubated at 25° C. for 5-7 days. C. albicans was grown in SDB and incubated at 25° C. for 48 h.
(§5) Pathogens in broth were harvested by centrifugation (2400 rpm, 20 minutes) and suspended in sterile phosphate buffer. A. brasiliensis was harvested by adding 18 mL sterile phosphate buffer to the plate and agitating the mold from the agar with a sterile inoculating loop. The spores were collected upon agitation. All suspended microbes were diluted with sterile phosphate buffer until a concentration in the range of 10^8 CFU/mL was achieved. The concentration was determined by plate count method. Each strain was identified by plating on the appropriate growth media, E. coli, S. aureus, and P. aeruginosa on TSA and C. albicans and A. brasiliensis on SDA, to ensure there was no contamination of the inoculum.
(§6) Preservative Efficacy Testing. Each tube was inoculated with the standardized microbial suspensions, using a ratio of 1 mL to 10 grams of the product, ensuring that the inoculum after suspension would yield the target level of 6-log CFU/g cream. For every testing time point, the sample was enumerated by sampling 1 g from the original product containers, serial dilution, and streaking plates containing the appropriate growth media to test colonization in duplicate. The inoculated plates were incubated at 25° C. for C. albicans and A. niger and 37° C. for E. coli, S. aureus, and P. aeruginosa. The number of viable microorganisms per gram was calculated via plate count method. The samples were enumerated on day 0, 2, 3, 5, 7, 14, and 28.
(§7) The plate counts obtained each day were averaged for each treatment. The results were shown graphically by the log count of each averaged value per treatment per day. For plates that had no growth, the lowest dilution plated was recorded.

[2] = tested on: Candida albicans (ATCC #10231); conditions: Study 1, cream with 0.5% or 1.0% caprylic acid, after 2 days
Method: as §1, §2, §3, §4, §5, §6, §7

[3] = tested on: Escherichia coli (ATCC #8739); conditions: Study 1, cream with 0.5% or 1.0% caprylic acid, after 3 days
Method: as §1, §2, §3, §4, §5, §6, §7

[4] = tested on: Pseudomonas aeruginosa (ATCC #9027); conditions: Study 1, cream with 0.5% or 1.0% caprylic acid, after 2 days
Method: as §1, §2, §3, §4, §5, §6, §7

[5] = tested on: Staphylococcus aureus (ATCC #6538); conditions: Study 1, cream with 0.5% or 1.0% caprylic acid, after 2 days
Method: as §1, §2, §3, §4, §5, §6, §7

CCCCCCCC(=O)O [Caprylic Acid, octanoic acid]
Log reduction of A. brasiliensis ([1]; Study 1, cream with caprylic acid, by the end of the study (28 days)): 2 log | Ability to reduce the mold in cream ([1]; caprylic acid alone as control): unable to reduce the mold | Log reduction of C. albicans [2]: 5 log | Log reduction of E. coli [3]: 5 log | Log reduction of P. aeruginosa [4]: 5 log | Log reduction of S. aureus [5]: 5 log
